In patent publication US20220380828A1, “MICROBIAL DETECTION PLATFORM” (NUCLEASE PROBE TECHNOLOGIES, INC., priority 2019, published 2022):
d = 2'-deoxy (DNA); m = 2'-O-methyl

Tests used:
Endonuclease I = target: T1, Endonuclease I (Escherichia coli, UniProt P25736); assay: Probe sensitivity to Endonuclease I; assay type: biochemical
T1 sequence (P25736 23-235): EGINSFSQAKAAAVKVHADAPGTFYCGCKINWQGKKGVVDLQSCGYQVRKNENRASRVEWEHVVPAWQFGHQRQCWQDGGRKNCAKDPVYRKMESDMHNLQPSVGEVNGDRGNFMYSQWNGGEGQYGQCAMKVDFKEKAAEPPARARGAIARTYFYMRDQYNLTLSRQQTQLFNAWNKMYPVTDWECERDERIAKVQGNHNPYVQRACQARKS

nuclease of S. pyogenes = assay: Probe sensitivity to S. pyogenes nuclease; assay type: biochemical
[1] = target: micrococcal nuclease of S. aureus (Staphylococcus aureus, UniProt P00644); assay: Probe sensitivity to micrococcal nuclease; assay type: biochemical
MRSA (ATCC BAA1707) = assay: MRSA vs MSSA detection on probe-embedded agar with/without cefoxitin, 96-well plates; assay type: cell-based, Staphylococcus aureus; settings: 1 μM probe in TSA-based media with/without cefoxitin, 37° C.
Experimental: Tryptic Soy Agar (BD Cat. #236950) was autoclaved according to the manufacturer's instructions and cooled down to 50-60° C. Then, pre-sterilized additives, including Tris*HCl (pH 9.0) (adjusted to 50 mM with the following stock solution: Rockland Cat. #MB028-1000) and CaCl2) (adjusted to 15 mM with the following stock solution: Sigma-Aldrich Cat. #21115-100ML) were added. 1 μM or 2 μM AttoPoly T 4mer and 4 μg/mL Cefoxitin (Alfa Aesar Cat. #AAJ6689103) were also included where indicated. 90 μL of the agar mixtures were pipetted into the wells of clear-bottom 96-well plates (Thermo Scientific, nunc Cat. #265301) and allowed to solidify. […]
(§1) S. aureus (ATCC 29213) cultures were grown in Tryptic Soy Broth (BD Cat. #211825) overnight at 37° C. with shaking at 300-400 rpm. […] Plates were incubated at 37° C. and imaged using an IO-Rodeo fluorescent imager (IO-Rodeo, Large, Blue LED) and an iPhone 8 camera, and fluorescence was also concurrently measured with a Synergy H1 microplate reader (BioTek).
(§2) Two fluorescence measurement formats were used to detect the growth of target bacterial species on agar growth media. […] The fluorescence of the 96-well plates was also measured with a Bio-Tek fluorescence plate-reader using fluorescence filters tailored for green fluorescence, providing quantitative data.

E. coli (ATCC 25922) [2] = assay: Specificity control on probe-embedded agar plates: E. coli; assay type: cell-based, Escherichia coli; settings: 8 hours after plating
Experimental: (§3) Tryptic Soy Agar (BD Cat. #236950) was autoclaved according to the manufacturer's instructions and cooled down to 50-60° C. Then, pre-sterilized components, including Tris-HCl (pH 9.0) (adjusted to 50 mM using the following stock solution: Rockland Cat. #MB028-1000) and CaCl2) (adjusted to 15 mM using the following stock solution: Sigma-Aldrich Cat. #21115-100ML) were added and the resulting mixture was poured into 60 mm Petri dishes (Corning Cat. #430589). 1 μM or 2 μM AttoPoly T 4mer (IDT, custom order) and 4 μg/mL Cefoxitin (Alfa Aesar Cat. #AAJ6689103) were also included where indicated. The agar mixtures were allowed to solidify, then the Petri dishes were sealed with parafilm (Bemis Cat. #999) and stored at 4° C., protected from light.
(§4) Two fluorescence measurement formats were used to detect the growth of target bacterial species on agar growth media. Agar media poured in 60 mm dishes or distributed to the wells of 96-well clear-bottomed plates were placed on an LED transilluminator (IORodeo) that emits blue light. A light filter was placed over the plates or dishes to block the LED-emitted light, but the filter still allows green light to pass, which is captured with an iPhone camera. […] The fluorescence of the 96-well plates was also measured with a Bio-Tek fluorescence plate-reader using fluorescence filters tailored for green fluorescence, providing quantitative data.

[3] = system: S. lugdunensis (ATCC 700328); assay: Specificity control on probe-embedded agar plates: S. lugdunensis; assay type: cell-based, Staphylococcus lugdunensis; settings: 8 hours after plating
Experimental: as §3, §4

S. aureus (ATCC 29213) = assay: S. aureus detection on probe-embedded agar Petri dishes (fluorescence imaging); assay type: cell-based, Staphylococcus aureus; settings: agar plates streaked with <1000 cells, 37° C., fluorescence plate imaging (SASelect: chromogenic agar)
Experimental: as §3
S. aureus (ATCC 29213) cultures were grown in Tryptic Soy Broth (BD Cat. #211825) overnight at 37° C. with shaking at 300-400 rpm. Dilutions to […] were made and these were streaked on agar Petri dishes with 1 μL calibrated inoculation loops (Fisher Scientific, Fisherbrand Cat. #22363601). […]
as §2

E. coli (ATCC 25922) [4] = assay: E. coli detection on fluorogenic agar in 96-well plates; assay type: cell-based, Escherichia coli; settings: 0.5 μM probe in TSA-based media, 96-well plate, 37° C.; vs S. aureus and S. pyogenes
Experimental: Tryptic Soy Agar (BD Cat. #236950) was autoclaved according to the manufacturer's instructions and cooled down to 50-60° C. Then, pre-sterilized components, including Tris-HCl (pH 8.0) (adjusted to 50 mM with the following stock solution: Fisher Scientific Cat. #BP1758-100), MgCl2 (adjusted to 20 mM with the following stock solution: Invitrogen Cat. #AM9530G), and Triton® X-100 (adjusted to 1% with the following stock solution: Fisher Scientific Cat. #50-751-7090). 0.5 μM Self-Hyb ATTO was also included where indicated. […]
as §1, with “E. coli” for “S. aureus”, “25922)” for “29213)”, “also measured” for “also”, “concurrently” for “concurrently measured”
as §2

S. pyogenes (ATCC 12344) [5] = assay: S. pyogenes detection on selective fluorogenic agar in 96-well plates; assay type: cell-based, Streptococcus pyogenes; settings: 0.5 μM probe, 96-well plate, in the presence of colistin (2 μg/ml), 37° C.
Experimental: Tryptic Soy Agar (BD Cat. #236950) was autoclaved according to the manufacturer's instructions and cooled down to 50-60° C. Then, pre-sterilized components, including Tris-HCl (pH 8.0) (adjusted to 50 mM with the following stock solution: Fisher Scientific Cat. #BP1758-100) and MgCl2 (adjusted to 20 mM with the following stock solution: Invitrogen Cat. #AM9530G) were added. 0.5 μM Self-Hyb ATTO and 2 μg/mL Colistin (Alfa Aesar Cat. #AAJ67415XF) were also included where indicated. 90 μL of the agar mixtures were pipetted into the wells of clear-bottom 96-well plates (Thermo Scientific, nunc Cat. #265301) and allowed to solidify. […]
as §1, with “pyogenes (ATCC® 12344™)” for “aureus (ATCC 29213)”, “with” for “using”, “also measured” for “also”, “concurrently” for “concurrently measured”
as §2

S. pyogenes (ATCC 12344) [6] = assay: S. pyogenes detection on probe-embedded agar plates; assay type: cell-based, Streptococcus pyogenes; settings: agar plates with 0.5 μM probe, streaked with 10,000 cells, 37° C.
Experimental: Tryptic Soy Agar (BD Cat. #236950) was autoclaved according to the manufacturer's instructions and cooled down to 50-60 degrees C. Then, pre-sterilized components including Tris-HCl (pH 8.0) (adjusted to 50 mM with the following stock solution: Fisher Scientific Cat. #BP1758-100) and MgCl2 (adjusted to 20 mM with the following stock solution: Invitrogen Cat. #AM9530G) were added and the resulting mixture was poured into 60 mm Petri dishes (Corning Cat. #430589). 0.5 μM Self-Hyb ATTO and 2 μg/mL Colistin (Alfa Aesar Cat. #AAJ67415XF) were also included where indicated. The agar mixtures were allowed to solidify. Then the Petri dishes were sealed with parafilm (Bemis Cat. #999) and stored at 4° C., protected from light.
S. pyogenes (ATCC® 12344) cultures were grown in Tryptic Soy Broth (BD Cat. #211825) overnight at 37° C. with shaking at 300-400 rpm. Dilutions to […] were made and streaked on agar Petri dishes with 1 μL calibrated inoculation loops (Fisher Scientific, Fisherbrand Cat. #22363601). […]
as §2

most nucleases = assay: Probe resistance to nucleases in general; assay type: biochemical

Substance: CTACGTAG (DNA, backbone not given here; further chemistry not fully specified) [DNA-SH]
- sensitivity to Endonuclease I (Endonuclease I): sensitive

Substance: fUfUfUfAfUfGfCfAfUfAfAfA (UUUAUGCAUAAA; all 2'-fluoro, backbone not given here; thiol or fluorophore label) [SH-Fl 5UUU]
- sensitivity to a nuclease of S. pyogenes (nuclease of S. pyogenes): sensitive
- sensitivity to Endonuclease I (Endonuclease I): sensitive

Substance: mUTTmUmUmUmUmUmUmUmU (UTTUUUUUUUU; sugars from the 5' end m1 d2 m8, backbone not given here) [P2&3 TT Probe]
- sensitivity to micrococcal nuclease of S. aureus [1]: sensitive

Substance: 5′-ATTO488-TTTT-ZEN-RQSp-3′ [AttoPoly T 4mer]
- time at which MRSA can be distinguished from MSSA (MRSA (ATCC BAA1707)): 8 to 10 h
- fluorescence produced by E. coli on probe-embedded agar (E. coli (ATCC 25922) [2]): did not produce fluorescence
- fluorescence produced by S. lugdunensis on probe-embedded agar [3]: did not produce fluorescence
- time to detection of S. aureus colonies after plating (S. aureus (ATCC 29213)): ≤ 8 h

Substance: 5′-ATTO488-fC-fU-fA-fC-fG-fU-fA-fG-ZEN-RQSp-3′ (CUACGUAG; 2'-fluoro; ATTO488, ZEN, RQSp quencher; (1)..(8) Each base pair in this sequence is a 2′-fluoro modified nucleotide. Please see Table 1 of the Specification.) [Self-Hyb ATTO]
- time to specific detection of E. coli (E. coli (ATCC 25922) [4]): 8 h
- sensitivity to a nuclease of S. pyogenes (nuclease of S. pyogenes): sensitive
- sensitivity to Endonuclease I (Endonuclease I): sensitive
- time to detection of low concentrations of S. pyogenes (S. pyogenes (ATCC 12344) [5]): ≤ 10 h
- time to detection of S. pyogenes (S. pyogenes (ATCC 12344) [6]): 19 h

Substance: mCmUmAmCmGmUmAmG (CUACGUAG; all 2'-O-methyl, backbone not given here; thiol modification) [2′-OMe SH]
- resistance to nucleases (most nucleases): resistant to most nucleases
